Tests used:
[1] = target: Bromodomain-containing protein 3 (Homo sapiens, UniProt Q15059); assay: Binding affinity to recombinant human BRD3 bromodomain-1 (44 to 168 residues) expressed in Escherichia coli BL21 (DE3) cells assessed as inhibition constant by fluorescence polarization assay
[2] = target: Histone acetyltransferase p300 (Homo sapiens, UniProt Q09472); assay: Inhibition of p300 (unknown origin) using [3H]-Ac-CoA as substrate preincubated for 15 mins followed by substrate addition and measured after 60 mins by Flashplate assay
Sequence of Histone acetyltransferase p300 (Q09472 whole entry): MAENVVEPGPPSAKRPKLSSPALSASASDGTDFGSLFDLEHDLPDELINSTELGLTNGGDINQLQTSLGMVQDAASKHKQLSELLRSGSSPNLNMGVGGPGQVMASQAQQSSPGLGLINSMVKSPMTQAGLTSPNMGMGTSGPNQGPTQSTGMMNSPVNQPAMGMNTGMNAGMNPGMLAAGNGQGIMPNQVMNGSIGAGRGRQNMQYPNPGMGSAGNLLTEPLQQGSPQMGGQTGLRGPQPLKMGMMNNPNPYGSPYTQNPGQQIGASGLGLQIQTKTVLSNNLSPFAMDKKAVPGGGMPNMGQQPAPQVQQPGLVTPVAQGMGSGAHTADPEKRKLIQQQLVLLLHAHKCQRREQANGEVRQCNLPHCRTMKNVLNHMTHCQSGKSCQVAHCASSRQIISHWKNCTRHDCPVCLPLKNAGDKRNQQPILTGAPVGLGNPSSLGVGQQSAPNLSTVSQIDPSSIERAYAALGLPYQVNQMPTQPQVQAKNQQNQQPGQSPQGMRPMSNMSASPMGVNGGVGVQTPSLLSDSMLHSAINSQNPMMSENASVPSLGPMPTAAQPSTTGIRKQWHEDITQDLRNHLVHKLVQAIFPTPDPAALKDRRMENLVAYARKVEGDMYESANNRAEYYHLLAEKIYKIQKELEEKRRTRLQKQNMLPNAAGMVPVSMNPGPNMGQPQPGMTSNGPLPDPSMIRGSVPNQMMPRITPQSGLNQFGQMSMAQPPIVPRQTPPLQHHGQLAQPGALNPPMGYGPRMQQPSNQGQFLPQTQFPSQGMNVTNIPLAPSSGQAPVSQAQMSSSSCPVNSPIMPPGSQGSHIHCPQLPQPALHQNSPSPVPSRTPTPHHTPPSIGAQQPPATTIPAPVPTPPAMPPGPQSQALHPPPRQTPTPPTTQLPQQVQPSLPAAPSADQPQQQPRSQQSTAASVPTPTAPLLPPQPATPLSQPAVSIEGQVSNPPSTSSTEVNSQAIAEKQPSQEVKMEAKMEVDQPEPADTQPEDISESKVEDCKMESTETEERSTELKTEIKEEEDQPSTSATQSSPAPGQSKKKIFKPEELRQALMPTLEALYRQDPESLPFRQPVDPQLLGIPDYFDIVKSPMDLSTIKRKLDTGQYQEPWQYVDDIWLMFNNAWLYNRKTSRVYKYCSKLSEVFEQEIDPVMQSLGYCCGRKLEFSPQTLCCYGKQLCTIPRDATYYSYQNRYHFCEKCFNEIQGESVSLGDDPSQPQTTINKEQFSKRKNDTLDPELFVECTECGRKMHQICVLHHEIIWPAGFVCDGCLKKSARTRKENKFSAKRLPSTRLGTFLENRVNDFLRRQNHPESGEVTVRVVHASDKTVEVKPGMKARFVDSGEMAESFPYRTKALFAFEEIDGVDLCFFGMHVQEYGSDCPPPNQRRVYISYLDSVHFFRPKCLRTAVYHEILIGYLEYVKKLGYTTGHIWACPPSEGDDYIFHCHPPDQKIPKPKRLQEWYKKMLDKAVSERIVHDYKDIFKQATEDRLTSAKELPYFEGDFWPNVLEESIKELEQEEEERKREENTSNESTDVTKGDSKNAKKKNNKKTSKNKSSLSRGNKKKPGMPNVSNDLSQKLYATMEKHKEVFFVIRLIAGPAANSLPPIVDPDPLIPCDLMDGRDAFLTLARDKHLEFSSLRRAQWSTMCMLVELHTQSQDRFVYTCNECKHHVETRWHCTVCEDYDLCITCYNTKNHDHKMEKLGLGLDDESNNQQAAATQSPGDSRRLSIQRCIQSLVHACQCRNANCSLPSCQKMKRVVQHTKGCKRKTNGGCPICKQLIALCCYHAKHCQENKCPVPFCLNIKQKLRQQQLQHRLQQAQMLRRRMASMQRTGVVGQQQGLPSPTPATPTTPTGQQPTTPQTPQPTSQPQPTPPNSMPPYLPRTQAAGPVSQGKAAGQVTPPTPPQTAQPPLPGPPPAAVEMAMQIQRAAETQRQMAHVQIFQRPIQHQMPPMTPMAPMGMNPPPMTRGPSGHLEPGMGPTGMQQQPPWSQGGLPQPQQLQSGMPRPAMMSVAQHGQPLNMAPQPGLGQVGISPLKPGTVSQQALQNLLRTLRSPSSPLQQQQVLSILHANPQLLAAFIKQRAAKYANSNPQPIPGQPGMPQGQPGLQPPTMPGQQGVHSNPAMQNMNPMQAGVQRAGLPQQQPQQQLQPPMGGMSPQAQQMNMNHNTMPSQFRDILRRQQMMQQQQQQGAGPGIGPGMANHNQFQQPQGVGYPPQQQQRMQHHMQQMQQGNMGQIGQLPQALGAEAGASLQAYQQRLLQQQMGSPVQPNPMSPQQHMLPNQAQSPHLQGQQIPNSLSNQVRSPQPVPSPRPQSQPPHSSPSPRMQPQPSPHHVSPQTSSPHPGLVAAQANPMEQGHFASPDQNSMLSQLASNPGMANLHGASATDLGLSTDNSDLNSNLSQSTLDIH

[3] = target: E3 ubiquitin-protein ligase Mdm2 (Homo sapiens, UniProt Q00987); assay: Binding affinity to MDM2 (unknown origin) assessed as dissociation constant
Sequence of E3 ubiquitin-protein ligase Mdm2 (Q00987 whole entry): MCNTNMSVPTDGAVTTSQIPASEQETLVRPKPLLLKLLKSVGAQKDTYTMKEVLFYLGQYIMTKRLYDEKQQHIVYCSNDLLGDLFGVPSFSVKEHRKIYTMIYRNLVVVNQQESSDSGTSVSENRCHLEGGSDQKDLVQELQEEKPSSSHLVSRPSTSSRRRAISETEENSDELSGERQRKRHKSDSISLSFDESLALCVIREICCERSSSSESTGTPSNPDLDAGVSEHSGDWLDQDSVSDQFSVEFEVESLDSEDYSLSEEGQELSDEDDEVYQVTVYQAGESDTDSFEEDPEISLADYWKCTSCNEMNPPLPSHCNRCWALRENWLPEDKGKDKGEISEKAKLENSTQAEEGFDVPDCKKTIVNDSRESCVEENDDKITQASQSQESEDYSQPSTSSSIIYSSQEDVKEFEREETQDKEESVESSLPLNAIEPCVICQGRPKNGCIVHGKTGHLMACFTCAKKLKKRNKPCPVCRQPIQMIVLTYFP

[4] = Inhibition of Aurora (unknown origin); set-up: species or system Homo sapiens
[5] = target: Transcriptional enhancer factor TEF-3 (Homo sapiens, UniProt Q15561); assay: Inhibition of YAP binding to human TEAD4 by fluorescence polarization assay
Sequence of Transcriptional enhancer factor TEF-3 (Q15561 whole entry): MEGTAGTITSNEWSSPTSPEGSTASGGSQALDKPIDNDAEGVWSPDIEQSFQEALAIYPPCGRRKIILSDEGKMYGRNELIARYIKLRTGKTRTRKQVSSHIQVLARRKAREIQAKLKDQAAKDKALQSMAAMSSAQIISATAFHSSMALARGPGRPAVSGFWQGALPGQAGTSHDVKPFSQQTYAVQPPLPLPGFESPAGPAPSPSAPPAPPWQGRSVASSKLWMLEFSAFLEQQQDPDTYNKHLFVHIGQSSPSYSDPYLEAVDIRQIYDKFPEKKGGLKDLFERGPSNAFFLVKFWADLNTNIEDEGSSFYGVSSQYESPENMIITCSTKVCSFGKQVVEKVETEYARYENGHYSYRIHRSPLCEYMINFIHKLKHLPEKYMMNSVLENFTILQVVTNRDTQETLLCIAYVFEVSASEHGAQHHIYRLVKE

Sequence of Bromodomain-containing protein 3 (Q15059 whole entry, the tested form may be a part): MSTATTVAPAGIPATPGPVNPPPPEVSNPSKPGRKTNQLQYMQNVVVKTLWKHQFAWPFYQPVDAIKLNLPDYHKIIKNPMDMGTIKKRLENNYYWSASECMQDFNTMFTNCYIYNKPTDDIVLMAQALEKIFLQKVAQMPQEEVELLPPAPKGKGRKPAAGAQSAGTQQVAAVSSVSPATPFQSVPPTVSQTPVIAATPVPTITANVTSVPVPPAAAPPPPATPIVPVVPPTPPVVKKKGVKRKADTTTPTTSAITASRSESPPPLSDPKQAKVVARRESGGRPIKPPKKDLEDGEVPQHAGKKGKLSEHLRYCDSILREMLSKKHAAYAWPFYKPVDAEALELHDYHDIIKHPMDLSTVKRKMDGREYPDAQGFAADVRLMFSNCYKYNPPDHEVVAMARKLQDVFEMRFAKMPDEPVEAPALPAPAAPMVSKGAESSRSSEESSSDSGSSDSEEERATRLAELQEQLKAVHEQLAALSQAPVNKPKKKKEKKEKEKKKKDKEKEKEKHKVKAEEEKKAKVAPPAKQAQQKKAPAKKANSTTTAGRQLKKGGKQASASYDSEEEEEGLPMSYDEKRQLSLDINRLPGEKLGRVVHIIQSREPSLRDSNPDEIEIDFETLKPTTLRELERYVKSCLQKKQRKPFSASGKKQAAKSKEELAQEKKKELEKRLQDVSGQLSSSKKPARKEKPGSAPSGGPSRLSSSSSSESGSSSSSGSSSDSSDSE

`COc1cc(/C=C/C(=O)Nc2ccc3c(c2)C2(C(=O)N3)C(C(=O)OC(C)(C)C)CC3CSCN32)cc(OC)c1OC` (stereo not given) gave a Ki [1] of 0.131 µM.
For `COC(=O)C1CC2CSCN2C12C(=O)Nc1ccc(NCc3ccc([N+](=O)[O-])cc3OCC(=O)O)cc12` (stereo not given), the IC50 [2] was 45 µM.
In the case of `Cc1ccc(NC(=O)Cn2cc(CN(C(=O)CCC(=O)OC(C)(C)C)C(C(=O)NC3CCCCC3)c3c[nH]c4cc(Cl)ccc34)nn2)c(C)c1` (stereo not given), the Kd [3] is reported as 33 µM.
For `CC(C)(C)OC(=O)C1CC2CSCN2C12C(=O)Nc1cc(-c3ccc4c(c3)CC(=O)N4)ccc12` (stereo not given), the IC50 [4] was 45 µM.
`Cc1ccn2cc(Cn3cc(CN(C(=O)CCC(=O)OC(C)(C)C)C(C(=O)NC4C[C@@H]5CC[C@]4(C)C5(C)C)c4c[nH]c5cc(Cl)ccc45)nn3)nc2c1` (stereo not given in full) gave an IC50 [5] of 0.51 µM.
